From the supplement of paper PMC10307832

How the values were obtained:
Assay in all cases: relative viability (nuclei count vs DMSO), 5 days (fraction); higher = more cells survive
NCI-H3122 = tested on: NCI-H3122
Procedure, shortened: (§1)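 Relative viability is defined as nuclei in treated wells over nuclei in vehicle wells. Duplicate plates were run and medians reported. Lung cancer cell lines in 1536-well plates were dosed by pin tool one day after seeding, with one drug or with a fixed anchor-drug dose plus five library-drug doses (not always all listed) in √10 steps, and nuclei were counted after 5 days.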

NCI-H1355 = tested on: NCI-H1355
Procedure, shortened: as §1

NCI-H1734 = tested on: NCI-H1734
Procedure, shortened: as §1

NCI-H2085 = tested on: NCI-H2085
Procedure, shortened: as §1

HCC-366 = tested on: HCC-366
Procedure, shortened: as §1

ABC-1 = tested on: ABC-1
Procedure, shortened: as §1

NCI-H2228 = tested on: NCI-H2228
Procedure, shortened: as §1

ChaGo-K-1 = tested on: ChaGo-K-1
Procedure, shortened: as §1

EPLC-272H = tested on: EPLC-272H
Procedure, shortened: as §1

NCI-H1944 = tested on: NCI-H1944
Procedure, shortened: as §1

SW 1573 = tested on: SW 1573
Procedure, shortened: as §1

NCI-H2009 = tested on: NCI-H2009
Procedure, shortened: as §1

NCI-H2023 = tested on: NCI-H2023
Procedure, shortened: as §1

NCI-H2347 = tested on: NCI-H2347
Procedure, shortened: as §1

HCC-15 = tested on: HCC-15
Procedure, shortened: as §1

HCC-44 = tested on: HCC-44
Procedure, shortened: as §1

LCLC-103H = tested on: LCLC-103H
Procedure, shortened: as §1

COR-L23 = tested on: COR-L23
Procedure, shortened: as §1

HCC-827 = tested on: HCC-827
Procedure, shortened: as §1

PC-14 = tested on: PC-14
Procedure, shortened: as §1

NCI-H2405 = tested on: NCI-H2405
Procedure, shortened: as §1

NCI-H1793 = tested on: NCI-H1793
Procedure, shortened: as §1

## CN1CCN(CCOc2cc(OC3CCOCC3)c3c(Nc4c(Cl)ccc5c4OCO5)ncnc3c2)CC1 [Saracatinib] + Cc1cc(Nc2cc(N3CCN(C)CC3)nc(Sc3ccc(NC(=O)C4CC4)cc3)n2)n[nH]1 [Tozasertib] (partner 0.1 µM)
NCI-H3122; first compound 0.02 µM
  relative viability: 0.569
NCI-H3122; first compound 0.2 µM
  relative viability: 0.358
NCI-H3122; first compound 0.6325 µM
  relative viability: 0.384
NCI-H3122; first compound 2 µM
  relative viability: 0.298
NCI-H1355; first compound 0.02 µM
  relative viability: 0.532
NCI-H1355; first compound 0.2 µM
  relative viability: 0.317
NCI-H1355; first compound 0.6325 µM
  relative viability: 0.454
NCI-H1355; first compound 2 µM
  relative viability: 0.36
NCI-H1734; first compound 0.02 µM
  relative viability: 0.305
NCI-H1734; first compound 0.6325 µM
  relative viability: 0.261
NCI-H1734; first compound 2 µM
  relative viability: 0.24
NCI-H2085; first compound 0.02 µM
  relative viability: 0.816
NCI-H2085; first compound 0.2 µM
  relative viability: 0.676
NCI-H2085; first compound 0.6325 µM
  relative viability: 0.722
NCI-H2085; first compound 2 µM
  relative viability: 0.707
HCC-366; first compound 0.02 µM
  relative viability: 0.117
HCC-366; first compound 0.6325 µM
  relative viability: 0.074
HCC-366; first compound 2 µM
  relative viability: 0.0412
ABC-1; first compound 0.02 µM
  relative viability: 0.157
ABC-1; first compound 0.2 µM
  relative viability: 0.164
ABC-1; first compound 0.6325 µM
  relative viability: 0.169
ABC-1; first compound 2 µM
  relative viability: 0.14
NCI-H2228; first compound 0.02 µM
  relative viability: 0.222
NCI-H2228; first compound 0.2 µM
  relative viability: 0.148
NCI-H2228; first compound 0.6325 µM
  relative viability: 0.213
NCI-H2228; first compound 2 µM
  relative viability: 0.154
ChaGo-K-1; first compound 0.02 µM
  relative viability: 0.24
ChaGo-K-1; first compound 0.2 µM
  relative viability: 0.233
ChaGo-K-1; first compound 0.6325 µM
  relative viability: 0.218
ChaGo-K-1; first compound 2 µM
  relative viability: 0.198
EPLC-272H; first compound 0.02 µM
  relative viability: 0.278
EPLC-272H; first compound 0.2 µM
  relative viability: 0.34
EPLC-272H; first compound 0.6325 µM
  relative viability: 0.179
EPLC-272H; first compound 2 µM
  relative viability: 0.157
NCI-H1944; first compound 0.02 µM
  relative viability: 0.23
NCI-H1944; first compound 0.6325 µM
  relative viability: 0.227
NCI-H1944; first compound 2 µM
  relative viability: 0.169
SW 1573; first compound 0.02 µM
  relative viability: 0.142
SW 1573; first compound 0.2 µM
  relative viability: 0.207
SW 1573; first compound 0.6325 µM
  relative viability: 0.189
SW 1573; first compound 2 µM
  relative viability: 0.188
NCI-H2009; first compound 0.02 µM
  relative viability: 0.655
NCI-H2009; first compound 0.2 µM
  relative viability: 0.715
NCI-H2009; first compound 0.6325 µM
  relative viability: 0.5
NCI-H2009; first compound 2 µM
  relative viability: 0.609
NCI-H2023; first compound 0.02 µM
  relative viability: 0.314
NCI-H2023; first compound 0.2 µM
  relative viability: 0.368
NCI-H2023; first compound 0.6325 µM
  relative viability: 0.268
NCI-H2023; first compound 2 µM
  relative viability: 0.262
NCI-H2347; first compound 0.02 µM
  relative viability: 0.514
NCI-H2347; first compound 0.2 µM
  relative viability: 0.517
NCI-H2347; first compound 0.6325 µM
  relative viability: 0.539
NCI-H2347; first compound 2 µM
  relative viability: 0.518
HCC-15; first compound 0.02 µM
  relative viability: 0.403
HCC-15; first compound 0.2 µM
  relative viability: 0.372
HCC-15; first compound 0.6325 µM
  relative viability: 0.365
HCC-15; first compound 2 µM
  relative viability: 0.24
HCC-44; first compound 0.02 µM
  relative viability: 0.967
HCC-44; first compound 0.2 µM
  relative viability: 0.891
HCC-44; first compound 0.6325 µM
  relative viability: 1.48
HCC-44; first compound 2 µM
  relative viability: 1.05
LCLC-103H; first compound 0.02 µM
  relative viability: 0.46
LCLC-103H; first compound 0.2 µM
  relative viability: 0.465
LCLC-103H; first compound 0.6325 µM
  relative viability: 0.465
LCLC-103H; first compound 2 µM
  relative viability: 0.454
COR-L23; first compound 0.02 µM
  relative viability: 0.185
COR-L23; first compound 0.2 µM
  relative viability: 0.207
COR-L23; first compound 0.6325 µM
  relative viability: 0.155
COR-L23; first compound 2 µM
  relative viability: 0.174
HCC-827; first compound 0.02 µM
  relative viability: 0.404
HCC-827; first compound 0.2 µM
  relative viability: 0.311
HCC-827; first compound 0.6325 µM
  relative viability: 0.171
HCC-827; first compound 2 µM
  relative viability: 0.11
PC-14; first compound 0.02 µM
  relative viability: 0.603
PC-14; first compound 0.2 µM
  relative viability: 0.514
PC-14; first compound 0.6325 µM
  relative viability: 0.475
PC-14; first compound 2 µM
  relative viability: 0.209
NCI-H2405; first compound 0.02 µM
  relative viability: 0.778
NCI-H2405; first compound 0.2 µM
  relative viability: 0.661
NCI-H2405; first compound 0.6325 µM
  relative viability: 0.706
NCI-H2405; first compound 2 µM
  relative viability: 0.521
NCI-H1793; first compound 0.02 µM
  relative viability: 0.318
NCI-H1793; first compound 0.6325 µM
  relative viability: 0.209
NCI-H1793; first compound 2 µM
  relative viability: 0.142
